BindingDB's records for doi:10.1021/jm980314l (Tanabe Seiyaku, 1999)
Counter-ions that a name gives are not always drawn.

molecular target: cGMP-specific 3',5'-cyclic phosphodiesterase PDE5 (Cavia porcellus); assay: Inhibition of Phosphodiesterase 5 of guinea pig lung

| IC50 | Compound |
| --- | --- |
| 1 µM | CCOc1cc2cc(CO)c(CO)c(-c3ccnc(-n4nc(-c5cccnc5)c5ccccc5c4=O)c3)c2cc1OC [2-[4-(6-Ethoxy-2,3-bis-hydroxymethyl-7-methoxy-naphthalen-1-yl)-pyridin-2-yl]-4-pyridin-3-yl-2H-phthalazin-1-one; hydrochloride] |
| 40 µM | COc1cc2cc(CO)c(CO)c(-c3ccnc(-n4ccccc4=O)c3)c2cc1OC [4'-(2,3-Bis-hydroxymethyl-6,7-dimethoxy-naphthalen-1-yl)-[1,2']bipyridinyl-2-one] |
| 0.2 µM | CCOc1cc2cc(CO)c(CO)c(-c3ccnc(-n4nc(-c5cccnc5)c5ccccc5c4=O)c3)c2cc1OCC [2-[4-(6,7-Diethoxy-2,3-bis-hydroxymethyl-naphthalen-1-yl)-pyridin-2-yl]-4-pyridin-3-yl-2H-phthalazin-1-one; hydrochloride] |
| 40 µM | COc1cc2cc(CO)c(CO)c(-c3ccc(-n4nc(-c5cccnc5)c5ccccc5c4=O)nc3)c2cc1OC [2-[5-(2,3-Bis-hydroxymethyl-6,7-dimethoxy-naphthalen-1-yl)-pyridin-2-yl]-4-pyridin-3-yl-2H-phthalazin-1-one; hydrochloride] |
| 9 µM | COc1cc2cc(CO)c(CO)c(-c3ccnc(-n4nc(-c5ccccn5)c5ccccc5c4=O)c3)c2cc1OC [2-[4-(2,3-Bis-hydroxymethyl-6,7-dimethoxy-naphthalen-1-yl)-pyridin-2-yl]-4-pyridin-2-yl-2H-phthalazin-1-one; hydrochloride] |
| 20 µM | COc1cc2cc(CO)c(CO)c(-c3ccnc(-n4ccc(=O)c5ccccc54)c3)c2cc1OC [1-[4-(2,3-Bis-hydroxymethyl-6,7-dimethoxy-naphthalen-1-yl)-pyridin-2-yl]-1H-quinolin-4-one] |
| 4 µM | COc1cc2cc(CO)c(CO)c(-c3ccnc(-n4nc(-c5cccnc5)c5ccccc5c4=O)c3)c2cc1OC [2-[4-(2,3-Bis-hydroxymethyl-6,7-dimethoxy-naphthalen-1-yl)-pyridin-2-yl]-4-pyridin-3-yl-2H-phthalazin-1-one; hydrochloride] |
| 10 µM | O=c1c2ccccc2c(-c2cccnc2)nn1-c1cc(-c2c(CO)c(CO)cc3ccccc23)ccn1 [2-[4-(2,3-Bis-hydroxymethyl-naphthalen-1-yl)-pyridin-2-yl]-4-pyridin-3-yl-2H-phthalazin-1-one; hydrochloride] |
